From PMC4604475 (Scientific Reports, 2015)

Experiments:
[1] = Hydrolysis kinetics in aqueous PBS 0.1 M, pH 6.8, 37 °C (intestinal conditions); assay type: physicochemical; conditions: for half-life at 5 μM: 0.1 M PBS buffer, 5 μM compound; for 10^2 * kII, pseudo first-order rate constant, disubstituted to monosubstituted / 10^2 * kIII, pseudo first-order rate constant, trisubstituted to disubstituted: value ± standard error of fit
From the text: (§1) There are two possible isomeric disubstituted intermediates and, likewise, two monosubstituted intermediates. By HPLC-UV and HPLC-MS analyses in most cases we were able to detect and separate all of them. However, to simplify the kinetic analysis of the data we considered each pair of isomeric intermediates, resulting from the first and second hydrolysis steps, as a single species, i.e. the two disubstituted and the two monosubstituted intermediates were handled as species II and I, respectively (Fig. 3). Fitting of the experimental data was then performed considering consecutive pseudo first order reactions and using a set of equations analogous to those described by Kozerski et al.[55]
The stability of all new compounds was tested in aqueous media imitating gastric (0.1 N HCl, NormaFix) and intestinal (0.1 M PBS buffer, pH 6.8) conditions. A 5 μM solution of the compound was prepared from a 5 mM stock solution in DMSO, and incubated at 37 °C for 24 hours; samples withdrawn at different times were analysed by HPLC-UV. Hydrolysis products were identified by HPLC/ESI-MS analysis of selected samples. Non-linear curve fitting was performed using Origin 8.0 data analysis software, using the equations described in[55][61].

[2] = Stability (hydrolysis kinetics) in rat whole blood; assay type: in vitro ADME; conditions: 37 °C; for kIII, pseudo first-order rate constant, trisubstituted to disubstituted: value ± standard error of fit; for half-life at 5 μM: whole blood (heparinised), 5 μM compound
From the text: as §1
Rats were anesthetised and blood was withdrawn from the jugular vein, and transferred into tubes containing heparin. Blood samples (1 mL) were spiked with 5 μM compound (dilution from a 5 mM stock solution in DMSO), and incubated at 37 °C for 4 hours (the maximum period allowed by blood stability). Aliquots were taken after 10 min, 30 min, 1 h, 2 h and 4 h and treated as described below (blood sample treatment and analysis). Cleared blood samples were finally subjected to HPLC-UV analysis.
(§2) Before starting the treatment, 4,4′-dihydroxybiphenyl was added as internal standard to a carefully measured blood volume (25 μM final concentration). 0.1 vol of 0.6 M TEA (pH 8.0) and 4 vol of MeOH were then added to the blood samples, which were then sonicated (2 min) and centrifuged (12,000 g, 7 min, 4 °C). The supernatant was finally collected and stored at −20 °C. Before analysis, MeOH was evaporated off at room temperature using a Univapo 150H (UniEquip) vacuum concentrator centrifuge, and up to 40 μL of ACN were added to precipitate residual proteins. After centrifugation (12,000 g, 5 min, 4 °C), cleared samples were directly subjected to HPLC-UV analysis. Metabolites and hydrolysis products were identified by comparison of chromatographic retention time with true samples or by HPLC/ESI-MS analysis.

[3] = Blood pharmacokinetics after oral (intragastric) administration to rats; assay type: in vivo; conditions: rat, oral 88 μmol/kg
Method: Derivatives 2–5 were then tested for their in vivo absorption and metabolism by performing pharmacokinetic studies after oral administration to rats. Each compound was administered as a single intragastric bolus, in an equimolar dose/kg body weight (88 μmol/kg). Blood samples were taken at different time points over a 24 h period, treated and analyzed as described in the Materials and Methods section. Each experiment was replicated at least 3 times.
as §2
Internal standard recovery from the treatment used to extract resveratrol-AA derivatives was 91.8 ± 10.7%. The recovery of 3, expressed as ratio to the recovery of internal standard, was 0.633 ± 0.088. […] Knowledge/assumption of these ratios allowed us to determine the unknown amount of analyte in a blood sample by measuring the recovery of internal standard.
Since sample treatment includes an evaporation/concentration step, LOD and LOQ were determined relatively to the analytical part of the method (HPLC/UV analysis).
Derivatives 2–5 were administered to overnight-fasted male Wistar rats from the facility of the Department of Biomedical Sciences, University of Padova, as a single intragastric dose (88 μmol/Kg, dissolved in 250 μl DMSO). Blood samples were obtained by the tail bleeding technique: before drug administration, rats were anesthetised with isoflurane and the tip of the tail was cut off; blood samples (80–100 μL each) were then taken from the tail tip at different time points after drug administration. Blood was collected in heparinised tubes, kept in ice and treated as described above within 10 min.

[4] = oral administration of an equimolar amount of resveratrol itself; cited from earlier work

SMILES | half-life at 5 μM [1] [h] | 10^2 * kII, pseudo first-order rate constant, disubstituted to monosubstituted [1] [h^−1] | 10^2 * kIII, pseudo first-order rate constant, trisubstituted to disubstituted [1] [h^−1] | kIII, pseudo first-order rate constant, trisubstituted to disubstituted [2] [h⁻¹] | half-life at 5 μM [2] [h] | appearance in blood of resveratrol, products of partial hydrolysis (II and I) or any metabolites [3] | time of peak blood concentration of resveratrol [4] | level of disubstituted hydrolysis products (II) in blood [3] | sulfated or glucuronidated species in the bloodstream [3] | concentration of prodrug in blood ([3]; about one hour after administration, remained around this level for several hours)
CC(O)C(NC(=O)Oc1ccc(/C=C/c2cc(OC(=O)NC(C(=O)O)C(C)O)cc(OC(=O)NC(C(=O)O)C(C)O)c2)cc1)C(=O)O (centres unmarked) [Derivative 4, (E)-2,2′-((((5-(4-(((1-carboxy-2-hydroxypropyl)carbamoyl)oxy)styryl)-1,3-phenylene)bis(oxy))bis(carbonyl))bis(azanediyl))bis(3-hydroxybutanoic acid)] | 15 | 1.4 ± 0.1 | 5.30 ± 0.08 | 3.9 ± 0.2 | 0.17 | did not result in the appearance in blood samples of detectable amounts | – | – | – | –
Oc1ccc(/C=C/c2cc(O)cc(O)c2)cc1 [resveratrol, 3,5, 4′-trihydroxy-trans-stilbene] | – | – | – | – | – | – | about 10 minutes | – | – | –
O=C(NC(Cc1ccccc1)C(=O)O)Oc1ccc(/C=C/c2cc(OC(=O)NC(Cc3ccccc3)C(=O)O)cc(OC(=O)NC(Cc3ccccc3)C(=O)O)c2)cc1 (centres unmarked) [Derivative 5, (E)-2,2′-((((5-(4-(((1-carboxy-2-phenylethyl)carbamoyl)oxy)styryl)-1,3-phenylene)bis(oxy))bis(carbonyl))bis(azanediyl))bis(3-phenylpropanoic acid)] | 17 | 1.36 ± 0.04 | 4.25 ± 0.02 | 1.86 ± 0.06 | 0.3 | did not result in the appearance in blood samples of detectable amounts | – | – | – | –
CC(C)CC(NC(=O)Oc1ccc(/C=C/c2cc(OC(=O)NC(CC(C)C)C(=O)O)cc(OC(=O)NC(CC(C)C)C(=O)O)c2)cc1)C(=O)O (centres unmarked) [Derivative 2, (E)-2,2′-((((5-(4-(((1-carboxy-3-methylbutyl)carbamoyl)oxy)styryl)-1,3-phenylene)bis(oxy))bis(carbonyl))bis(azanediyl))bis(4-methylpentanoic acid)] | > 24 | 0.9 ± 0.2 | 1.98 ± 0.03 | 0.57 ± 0.06 | 1 | – | – | – | – | –
CCC(C)C(NC(=O)Oc1ccc(/C=C/c2cc(OC(=O)NC(C(=O)O)C(C)CC)cc(OC(=O)NC(C(=O)O)C(C)CC)c2)cc1)C(=O)O (centres unmarked) [Derivative 3, (E)-2,2′-((((5-(4-(((1-carboxy-2-methylbutyl)carbamoyl)oxy)styryl)-1,3-phenylene)bis(oxy))bis(carbonyl))bis(azanediyl))bis(3-methylpentanoic acid)] | > 24 | 0.4 ± 0.4 | 2.21 ± 0.02 | 0.63 ± 0.04 | 1 | – | – | about as high as that of their precursor | neither sulfated nor glucuronidated species appeared in the bloodstream | higher than 0.5 μM
